In US5276023A, “19-nor-steroid esters” (Roussel Uclaf, priority 1989, dated 1994):

How the values were obtained:
Glucocorticoid receptor = target: T1, Glucocorticoid receptor (Rattus norvegicus, UniProt P06536); assay: relative bond affinity for the glucocorticoid receptor of rat's thymus; format: binding; details: tritiated dexamethasone 2.5 nM, RBA=100 (CH)/(CX), reference cold dexamethasone; for relative bond affinity (RBA), Glucocorticoid 4H: 4 hours incubation at 0° C.; for relative bond affinity (RBA), Glucocorticoid 24H: 24 hours incubation at 0° C.
T1 construct: The thymuses were removed and homogenized; from tissue; host or cells: thymus cytosol (105,000 g supernatant) of suprarenalectomized male rats
T1 sequence (P06536 1-795): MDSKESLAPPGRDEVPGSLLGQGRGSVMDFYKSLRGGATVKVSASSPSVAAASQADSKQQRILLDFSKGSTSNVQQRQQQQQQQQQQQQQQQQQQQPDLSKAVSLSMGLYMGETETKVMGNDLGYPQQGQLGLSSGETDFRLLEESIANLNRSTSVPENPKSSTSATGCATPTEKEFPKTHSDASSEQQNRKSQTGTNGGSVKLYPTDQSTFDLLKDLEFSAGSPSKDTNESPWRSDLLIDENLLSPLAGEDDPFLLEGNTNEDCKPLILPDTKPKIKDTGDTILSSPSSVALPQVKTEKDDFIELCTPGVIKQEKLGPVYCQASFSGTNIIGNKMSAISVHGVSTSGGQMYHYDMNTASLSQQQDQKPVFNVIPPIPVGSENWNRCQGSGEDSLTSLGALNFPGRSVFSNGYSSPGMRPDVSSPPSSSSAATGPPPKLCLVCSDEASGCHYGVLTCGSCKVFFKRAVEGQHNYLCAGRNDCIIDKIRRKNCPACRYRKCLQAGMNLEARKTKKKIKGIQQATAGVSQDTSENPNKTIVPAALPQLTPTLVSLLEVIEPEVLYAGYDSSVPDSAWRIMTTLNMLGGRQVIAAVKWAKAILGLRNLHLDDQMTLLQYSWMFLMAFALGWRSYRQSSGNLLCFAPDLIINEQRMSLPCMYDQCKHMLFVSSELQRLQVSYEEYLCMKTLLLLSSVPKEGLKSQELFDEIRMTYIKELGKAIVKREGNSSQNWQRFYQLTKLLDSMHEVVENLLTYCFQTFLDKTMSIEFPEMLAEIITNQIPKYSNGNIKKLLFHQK
Procedure: (§1) 1) Measurement of the relative bond affinity for the receptors of steroid hormones:
Glucocorticoid receptor of rat's thymus:
Male rats weighing 160 to 200 g were suprarenalectomized and 4 to 8 days after this removal, the animals were killed. The thymuses were removed and homogenized at 0° C. using a Potter teflon-flask in a (TSD) 10 Mm Tris, 0.25M saccharose, 2 mM dithiothreitol, HCl pH 7.4 buffer (1 g of tissue per 10 ml of TSD). The homogenate was then ultracentrifuged at 105,000 g×90 mn at 0° C. Aliquots of the supernatant "cytosol", were incubated at 0° C. for 4 hours and 24 hours with a constant concentration (T=2.5 nM) of tritiated dexamethasone in the presence of increasing concentrations (0-2,500 nM) of cold dexamethasone or of the cold product under test. The concentration of the bonded tritiated dexamethasone (B) was then measured in each incubate by the technique of adsorption with carbon-dextran.
(§2) Calculation of the relative bond affinity:
(§3) The calculation of the relative bond affinity (RBA) was identical for all receptors. The following two curves were drawn: the percentage of bonded tritiated hormone B/T as a function of the logarithm of the concentration of the cold reference hormone and B/T as a function of the logarithm of the concentration of the cold product under test. The straight line of the equation:
(§4) B max=Percentage of bonded tritiated hormone for an incubation of this tritiated hormone at the concentration (T).
(§5) B min=Percentage of bonded tritiated hormone for an incubation of this tritiated hormone at the concentration (T) in the presence of a great excess of cold hormone (2500×10^-9 M).
(§6) The intersections of the straight line I50 and the curves allowed the evaluation of the concentrations of the cold reference hormone (CH) and of the cold product under test (CX) which inhibited by 50% the bonding of the tritiated hormone on the receptor. The relative bond affinity (RBA) of the product under test was determined by the equation RBA=100 (CH)/(CX)

Androgen receptor = target: T2, Androgen receptor (Rattus norvegicus, UniProt P15207); assay: relative bond affinity for the androgen receptor of rat's prostate; format: binding; details: tritiated testosterone, RBA=100 (CH)/(CX), reference cold testosterone; for relative bond affinity (RBA), Androgen 0,5H: half an hour incubation at 0° C.; for relative bond affinity (RBA), Androgen: incubation at 0° C.
T2 construct: The prostates were removed, weighed and homogenized; from tissue; host or cells: prostate cytosol (105,000 g supernatant) of castrated male rats
T2 sequence (P15207 1-902): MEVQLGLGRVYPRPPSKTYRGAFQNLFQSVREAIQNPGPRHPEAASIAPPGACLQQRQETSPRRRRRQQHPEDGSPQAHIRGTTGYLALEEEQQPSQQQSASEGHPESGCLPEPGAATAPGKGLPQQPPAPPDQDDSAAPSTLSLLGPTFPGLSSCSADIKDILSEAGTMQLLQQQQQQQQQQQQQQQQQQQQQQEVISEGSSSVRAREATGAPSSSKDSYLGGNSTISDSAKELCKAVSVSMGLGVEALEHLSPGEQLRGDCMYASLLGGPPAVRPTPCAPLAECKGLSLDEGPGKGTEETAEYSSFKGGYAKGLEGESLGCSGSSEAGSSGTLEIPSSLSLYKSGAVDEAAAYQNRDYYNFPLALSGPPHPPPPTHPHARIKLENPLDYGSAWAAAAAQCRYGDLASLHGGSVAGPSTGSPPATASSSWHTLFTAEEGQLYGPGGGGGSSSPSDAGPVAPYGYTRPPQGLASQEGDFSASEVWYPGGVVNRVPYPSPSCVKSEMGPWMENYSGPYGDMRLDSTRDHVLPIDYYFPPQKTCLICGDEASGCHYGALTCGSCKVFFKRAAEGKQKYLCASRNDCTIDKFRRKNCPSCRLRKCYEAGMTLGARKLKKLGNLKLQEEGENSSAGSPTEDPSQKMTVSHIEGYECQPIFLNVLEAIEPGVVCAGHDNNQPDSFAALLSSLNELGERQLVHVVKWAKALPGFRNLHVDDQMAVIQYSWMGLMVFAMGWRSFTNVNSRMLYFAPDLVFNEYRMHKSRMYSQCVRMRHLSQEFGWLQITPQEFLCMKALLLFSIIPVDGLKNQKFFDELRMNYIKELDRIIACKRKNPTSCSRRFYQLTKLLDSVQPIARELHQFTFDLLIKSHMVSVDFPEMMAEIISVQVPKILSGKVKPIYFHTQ
Procedure: as §1
Androgen receptor of rat's prostate
Male rats weighing 160 to 200 g were castrated and 24 hours after the castration, the animals were killed. The prostates were removed, weighed and homogenized at 0° C. using a Potter teflon-flask in a (TSDPM) 10 mM Tris, 0.25M saccharose, […] phenylmethanesulfonylfluoride, 20 mM molybdate, 2 mM dithiothreitol, HCl pH 7.4 buffer (1 g of tissue per 5 ml of TSDPM). The homogenate was ultracentrifuged (105,000 g×60 mn) at 0° C. and aliquots of the supernatant "cytosol", were incubated at 0° C. with a constant concentration in the presence of increasing concentrations (0-1000 nM) of cold testosterone or of the product under test. […]
as §2, §3, §4, §5, §6

Row | Compound | relative bond affinity (RBA), Glucocorticoid 4H (Glucocorticoid receptor) | relative bond affinity (RBA), Glucocorticoid 24H (Glucocorticoid receptor) | relative bond affinity (RBA), Androgen 0,5H (Androgen receptor) | relative bond affinity (RBA), Androgen (Androgen receptor) | also measured
1 | CN(C)c1ccc([C@H]2C[C@@]3(C)[C@@H](CC[C@]3(C#CCl)OC(=O)CCC(=O)O)[C@@H]3CCC4=CC(=O)CCC4=C32)cc1 [Example 10, Sodium and 21-chloro-11β-[4-dimethylamino-phenyl]-19-nor-17α-Δ^4,9-pregnadien-3-one-20-yn-17β-yl succinate] | 37 | 77 | 1,9 | 8,6 | –
2 | CC#C[C@]1(OC(=O)CCC(=O)O)CC[C@H]2[C@@H]3CCC4=CC(=O)CCC4=C3[C@@H](c3ccc(SC)cc3)C[C@@]21C [Example 12, Sodium and 11β-[4-methylthio-phenyl]-17α-(1-propynyl)-Δ^4,9 estradien-3-one-17β-yl succinate] | 9,5 | 24 | 0,8 | 0,3 | –
3 | CN(C)c1ccc([C@H]2C[C@@]3(C)[C@@H](CC[C@@]3(O)C#CCOC(=O)CCC(=O)O)[C@@H]3CCC4=CC(=O)CCC4=C32)cc1 [Example 4, Sodium and 3-[11β-[4-dimethylamino-phenyl]-Δ^4,9-estradien-17β-ol-3-one-17α-yl]-2-propynyl succinate] | 31,5 | 27 | 5,1 | 2,8 | –
4 | CC#C[C@]1(OC(=O)CCC(=O)O)CC[C@H]2[C@@H]3CCC4=CC(=O)CCC4=C3[C@@H](c3ccc(N(C)C)cc3)C[C@@]21C [Example 6, Sodium 11β-[4-dimethylamino-phenyl]17α-(1-propynyl)-Δ^4,9 - estradien-3-one-17β-yl succinate] | – | – | – | – | relative bond affinity (RBA), Glucocorticoid 4H (Glucocorticoid receptor; listed as EX. 6): 26; relative bond affinity (RBA), Glucocorticoid 24H (Glucocorticoid receptor; listed as EX. 6): 54; relative bond affinity (RBA), Androgen 0,5H (Androgen receptor; listed as EX. 6): 2,2; relative bond affinity (RBA), Androgen (Androgen receptor; listed as EX. 6): 4,1
5 | CN(C)c1ccc([C@H]2C[C@@]3(C)[C@@H](CC[C@@]3(O)/C=C\COC(=O)CCC(=O)O)[C@@H]3CCC4=CC(=O)CCC4=C32)cc1 [Example 2, Sodium (Z)-3-[11β-[4-dimethylamino-phenyl]-Δ^4,9-estradien-17β-ol-3-one-17α-yl]-2-propenyl succinate] | 62 | 48 | 12 | 39 | –
6 | CC#C[C@]1(OC(=O)CCC(=O)O)CC[C@H]2[C@@H]3CCC4=CC(=O)CCC4=C3[C@@H](c3ccc(N(C)C)cc3)C[C@@]21C [Example 5, 11β-[4-dimethylamino-phenyl]-17-(1-propynyl)-Δ^4,9-estradien-3-one-17β-yl acid succinate] | – | – | – | – | relative bond affinity (RBA), Glucocorticoid 4H (Glucocorticoid receptor; listed as EX. 5): 28; relative bond affinity (RBA), Glucocorticoid 24H (Glucocorticoid receptor; listed as EX. 5): 77; relative bond affinity (RBA), Androgen 0,5H (Androgen receptor; listed as EX. 5): 0,6; relative bond affinity (RBA), Androgen (Androgen receptor; listed as EX. 5): 1
